Values of other authors, collected in patent publication US20100035919A1, “COMPOUNDS USEFUL AS INHIBITORS OF PROTEIN KINASES” (ABBOTT LABORATORIES, priority 2008, published 2010).

How the values were obtained:
rat = conditions: experimental myocardial infarction (MI); rat model of chronic hypertension induced congestive heart failure
vein grafts = conditions: weeks following the procedure
Zucker obese rats = conditions: 4 weeks
OLETF rats = conditions: high dose

Row | SMILES | effect on ischemia-reperfusion injury, myocardial infarct size and myocardial fibrosis (rat) | VSMC apoptosis (vein grafts) | intimal thickening and vascular smooth muscle cell (VSMC) proliferation (vein grafts) | blood pressure, glucose and lipid metabolism, insulin signalling, endothelial dysfunction (Zucker obese rats) | development of diabetes, obesity, and dyslipidemia (OLETF rats) | serum adiponectin levels (OLETF rats) | cerebral blood flow (in vivo) | neuroprotection (under CNS ischemic conditions)
1 | O=S(=O)(c1cccc2cnccc12)N1CCCNCC1 [fasudil] | decrease ischemia-reperfusion injury, myocardial infarct size, and myocardial fibrosis | enhanced | significantly suppressed | reduced blood pressure, corrected glucose and lipid metabolism, improved insulin signalling and endothelial dysfunction | completely suppressed | increased | increased cerebral blood flow | neuroprotective
2 | C[C@@H](N)[C@H]1CC[C@H](C(=O)Nc2ccncc2)CC1 [Example Y-27632, Y-27632] | decrease ischemia-reperfusion injury, myocardial infarct size, and myocardial fibrosis | – | – | – | – | – | – | –
